Test results taken from PubChem BioAssay (NCI).
“And” between values parts separate entries of the source, which are not always exact repeats. Equal entries are not always repeated.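 In this assay, cells in 96-well plates receive the compound at five concentrations for 48 hours. Endpoints are linearly interpolated between the surrounding concentrations. GI50 = concentration required for 50% inhibition of growth. The concentration for full growth arrest is given as TGI.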

Key:
Experiment in all cases: growth of human tumour cells (NCI), 48 h
UO-31 renal = system: UO-31 renal
A549 NSCLC = system: A549 NSCLC
NCI-H522 lung = system: NCI-H522 lung
LXFL 529 NSCLC = system: LXFL 529 NSCLC
RPMI-8226 leukemia = system: RPMI-8226 leukemia
786-0 renal = system: 786-0 renal
HOP-62 NSCLC = system: HOP-62 NSCLC
HCT-116 colon = system: HCT-116 colon
UACC-257 melanoma = system: UACC-257 melanoma
KM12 colon = system: KM12 colon
SNB-19 CNS = system: SNB-19 CNS
SF-268 CNS = system: SF-268 CNS
NCI-H226 lung = system: NCI-H226 lung
SF-295 CNS = system: SF-295 CNS
SN12C renal = system: SN12C renal
OVCAR-3 ovarian = system: OVCAR-3 ovarian
UACC-62 melanoma = system: UACC-62 melanoma
HL-60(TB) leukemia = system: HL-60(TB) leukemia
NCI-H460 lung = system: NCI-H460 lung
SNB-75 CNS = system: SNB-75 CNS
CCRF-CEM leukemia = system: CCRF-CEM leukemia
DMS 114 small cell lung = system: DMS 114 small cell lung
SR leukemia = system: SR leukemia
KM20L2 colon = system: KM20L2 colon
HCC-2998 colon = system: HCC-2998 colon
EKVX NSCLC = system: EKVX NSCLC
HT29 colon = system: HT29 colon
M14 melanoma = system: M14 melanoma
U251 CNS = system: U251 CNS
OVCAR-4 ovarian = system: OVCAR-4 ovarian
SNB-78 CNS = system: SNB-78 CNS
HCT-15 colon = system: HCT-15 colon
HOP-92 NSCLC = system: HOP-92 NSCLC
SK-MEL-5 melanoma = system: SK-MEL-5 melanoma
SK-OV-3 ovarian = system: SK-OV-3 ovarian
CAKI-1 renal = system: CAKI-1 renal
MALME-3M melanoma = system: MALME-3M melanoma
MOLT-4 leukemia = system: MOLT-4 leukemia
SK-MEL-28 melanoma = system: SK-MEL-28 melanoma
COLO 205 colon = system: COLO 205 colon
OVCAR-5 ovarian = system: OVCAR-5 ovarian
M19-MEL melanoma = system: M19-MEL melanoma
DLD-1 colon = system: DLD-1 colon
A498 renal = system: A498 renal
TK-10 renal = system: TK-10 renal
RXF 393 renal = system: RXF 393 renal
LOX IMVI melanoma = system: LOX IMVI melanoma
ACHN renal = system: ACHN renal
SF-539 CNS = system: SF-539 CNS
SW-620 colon = system: SW-620 colon
OVCAR-8 ovarian = system: OVCAR-8 ovarian
IGROV1 ovarian = system: IGROV1 ovarian
DMS 273 small cell lung = system: DMS 273 small cell lung
SK-MEL-2 melanoma = system: SK-MEL-2 melanoma
NCI-H23 lung = system: NCI-H23 lung
HOP-18 NSCLC = system: HOP-18 NSCLC
K-562 leukemia = system: K-562 leukemia

Which GI50 (UO-31 renal) does the source give for CN(O)C(=O)SCC(NC(=O)CCC(N)C(=O)O)C(=O)NCC(=O)O (stereo not given) here?
Its GI50 is > 2000 µM.

What about the TGI (UO-31 renal) of the same molecule?
Its TGI is > 2000 µM.

And the GI50 (A549 NSCLC)?
Its GI50 is > 2000 µM.

And the TGI (A549 NSCLC)?
Its TGI is > 2000 µM.

What about the GI50 (NCI-H522 lung) of the same molecule?
The GI50 was > 2000 µM.

What about the TGI (NCI-H522 lung) of the same molecule?
Its TGI is > 2000 µM.

And the GI50 (LXFL 529 NSCLC)?
The GI50 was > 2000 µM.

What about the TGI (LXFL 529 NSCLC) of the same molecule?
Its TGI is > 2000 µM.

What about the GI50 (RPMI-8226 leukemia) of the same molecule?
Its GI50 is > 2000 µM.

What about the TGI (RPMI-8226 leukemia) of the same molecule?
Its TGI is > 2000 µM.

And the GI50 (786-0 renal)?
The GI50 was > 2000 µM.

And the TGI (786-0 renal)?
The TGI was > 2000 µM.

And the GI50 (HOP-62 NSCLC)?
The GI50 was > 2000 µM.

And the TGI (HOP-62 NSCLC)?
Its TGI is > 2 µM and 313 µM and > 2000 µM.

And the GI50 (HCT-116 colon)?
The GI50 was > 2000 µM.

What about the TGI (HCT-116 colon) of the same molecule?
Its TGI is > 2000 µM.

What about the GI50 (UACC-257 melanoma) of the same molecule?
Its GI50 is > 2000 µM.

And the TGI (UACC-257 melanoma)?
The TGI was > 2000 µM.

And the GI50 (KM12 colon)?
The GI50 was > 2 µM.

What about the TGI (KM12 colon) of the same molecule?
The TGI was > 2000 µM.

What about the GI50 (SNB-19 CNS) of the same molecule?
The GI50 was > 2000 µM.

What about the TGI (SNB-19 CNS) of the same molecule?
The TGI was > 2000 µM.

What about the GI50 (SF-268 CNS) of the same molecule?
Its GI50 is > 2 µM.

What about the TGI (SF-268 CNS) of the same molecule?
The TGI was > 2000 µM.

What about the GI50 (NCI-H226 lung) of the same molecule?
The GI50 was > 2000 µM.

And the TGI (NCI-H226 lung)?
The TGI was > 2000 µM.

And the TGI (SF-295 CNS)?
The TGI was > 2 µM.

And the GI50 (SN12C renal)?
Its GI50 is > 2000 µM.

And the TGI (SN12C renal)?
Its TGI is > 2000 µM.

What about the GI50 (OVCAR-3 ovarian) of the same molecule?
The GI50 was > 2000 µM.

What about the TGI (OVCAR-3 ovarian) of the same molecule?
Its TGI is > 2000 µM.

What about the GI50 (UACC-62 melanoma) of the same molecule?
The GI50 was > 2000 µM.

And the TGI (UACC-62 melanoma)?
Its TGI is > 2000 µM.

What about the GI50 (HL-60(TB) leukemia) of the same molecule?
Its GI50 is > 2 µM and 1200 µM.

What about the TGI (HL-60(TB) leukemia) of the same molecule?
The TGI was > 2000 µM.

And the GI50 (NCI-H460 lung)?
The GI50 was > 2 µM.

And the TGI (NCI-H460 lung)?
The TGI was > 2000 µM.

What about the GI50 (SNB-75 CNS) of the same molecule?
Its GI50 is > 2000 µM.

And the TGI (SNB-75 CNS)?
Its TGI is > 2000 µM.

And the GI50 (CCRF-CEM leukemia)?
The GI50 was 198 µM and 520 µM.

What about the TGI (CCRF-CEM leukemia) of the same molecule?
Its TGI is > 2 µM and 649 µM and 1240 µM.

And the GI50 (DMS 114 small cell lung)?
Its GI50 is > 2000 µM.

And the TGI (DMS 114 small cell lung)?
Its TGI is > 2000 µM.

And the TGI (SR leukemia)?
The TGI was > 2 µM.

What about the GI50 (KM20L2 colon) of the same molecule?
Its GI50 is > 2000 µM.

And the TGI (KM20L2 colon)?
Its TGI is > 2000 µM.

And the TGI (HCC-2998 colon)?
Its TGI is > 2 µM.

What about the GI50 (EKVX NSCLC) of the same molecule?
The GI50 was > 2000 µM.

What about the TGI (EKVX NSCLC) of the same molecule?
The TGI was > 2000 µM.

And the GI50 (HT29 colon)?
The GI50 was > 2000 µM.

And the TGI (HT29 colon)?
The TGI was > 2000 µM.

What about the GI50 (M14 melanoma) of the same molecule?
The GI50 was > 2000 µM.

What about the TGI (M14 melanoma) of the same molecule?
Its TGI is > 2000 µM.

And the GI50 (U251 CNS)?
Its GI50 is > 2000 µM.

What about the GI50 (OVCAR-4 ovarian) of the same molecule?
The GI50 was > 2000 µM.

What about the TGI (OVCAR-4 ovarian) of the same molecule?
Its TGI is > 2000 µM.

What about the TGI (SNB-78 CNS) of the same molecule?
The TGI was > 2 µM.

And the GI50 (HCT-15 colon)?
The GI50 was > 2000 µM.

And the GI50 (HOP-92 NSCLC)?
Its GI50 is > 2000 µM.

What about the TGI (HOP-92 NSCLC) of the same molecule?
Its TGI is > 2000 µM.

What about the GI50 (SK-MEL-5 melanoma) of the same molecule?
The GI50 was > 2000 µM.

And the TGI (SK-MEL-5 melanoma)?
The TGI was > 2000 µM.

What about the GI50 (SK-OV-3 ovarian) of the same molecule?
Its GI50 is > 2000 µM.

And the TGI (SK-OV-3 ovarian)?
The TGI was > 2000 µM.

What about the GI50 (CAKI-1 renal) of the same molecule?
The GI50 was > 2000 µM.

What about the TGI (CAKI-1 renal) of the same molecule?
The TGI was > 2000 µM.

And the GI50 (MALME-3M melanoma)?
The GI50 was > 2000 µM.

What about the TGI (MALME-3M melanoma) of the same molecule?
The TGI was > 2000 µM.

What about the GI50 (MOLT-4 leukemia) of the same molecule?
Its GI50 is > 2 µM.

What about the TGI (MOLT-4 leukemia) of the same molecule?
The TGI was > 2000 µM.

And the GI50 (SK-MEL-28 melanoma)?
The GI50 was > 2000 µM.

What about the TGI (SK-MEL-28 melanoma) of the same molecule?
The TGI was > 2000 µM.

What about the GI50 (COLO 205 colon) of the same molecule?
The GI50 was > 2000 µM.

And the TGI (COLO 205 colon)?
Its TGI is > 2000 µM.

And the TGI (OVCAR-5 ovarian)?
The TGI was > 2 µM.

What about the GI50 (M19-MEL melanoma) of the same molecule?
Its GI50 is > 2000 µM.

And the TGI (M19-MEL melanoma)?
Its TGI is > 2000 µM.

What about the GI50 (DLD-1 colon) of the same molecule?
Its GI50 is > 2000 µM.

What about the TGI (DLD-1 colon) of the same molecule?
Its TGI is > 2000 µM.

And the GI50 (A498 renal)?
Its GI50 is > 2000 µM.

And the TGI (A498 renal)?
Its TGI is > 2000 µM.

And the GI50 (TK-10 renal)?
Its GI50 is > 2000 µM.

What about the TGI (TK-10 renal) of the same molecule?
Its TGI is > 2000 µM.

What about the GI50 (RXF 393 renal) of the same molecule?
Its GI50 is > 2000 µM.

And the TGI (RXF 393 renal)?
The TGI was > 2000 µM.

What about the GI50 (LOX IMVI melanoma) of the same molecule?
Its GI50 is 668 µM.

What about the TGI (LOX IMVI melanoma) of the same molecule?
The TGI was > 2000 µM.

What about the GI50 (ACHN renal) of the same molecule?
Its GI50 is > 2000 µM.

And the TGI (ACHN renal)?
The TGI was > 2000 µM.

And the TGI (SF-539 CNS)?
The TGI was > 2 µM.

What about the TGI (SW-620 colon) of the same molecule?
The TGI was > 2000 µM.

And the GI50 (OVCAR-8 ovarian)?
The GI50 was > 2000 µM.

And the TGI (OVCAR-8 ovarian)?
The TGI was > 2000 µM.

What about the GI50 (IGROV1 ovarian) of the same molecule?
Its GI50 is > 2000 µM.

What about the TGI (IGROV1 ovarian) of the same molecule?
Its TGI is > 2000 µM.

And the GI50 (DMS 273 small cell lung)?
The GI50 was > 2000 µM.

What about the TGI (DMS 273 small cell lung) of the same molecule?
The TGI was > 2000 µM.

What about the GI50 (SK-MEL-2 melanoma) of the same molecule?
Its GI50 is > 2 µM and 524 µM.

What about the TGI (SK-MEL-2 melanoma) of the same molecule?
The TGI was > 2000 µM.

What about the GI50 (NCI-H23 lung) of the same molecule?
Its GI50 is > 2000 µM.

And the TGI (NCI-H23 lung)?
Its TGI is > 2000 µM.

What about the GI50 (HOP-18 NSCLC) of the same molecule?
The GI50 was > 2000 µM.

And the TGI (HOP-18 NSCLC)?
Its TGI is > 2000 µM.

And the GI50 (K-562 leukemia)?
The GI50 was > 2 µM and 812 µM.

What about the TGI (K-562 leukemia) of the same molecule?
The TGI was > 2000 µM.
